Data on 16 molecules can be found in patent publication USRE43327E1, “Hydrophobic polyamine analogs and methods for their use” (Aminex Therapeutics, Inc., priority 2001, dated 2012).

SMILES strings stand for the structures. Where two headings read alike, the source gives them in different places.

Common to all, as to format: cell-based
For assay [1], the system named is 4 cell lines (A375, MDA-MB-231, PC-3, SK-OV-3). The assay can be described thus: Growth inhibition with DFMO, average over 4 cell lines. The settings on record: with DFMO.
The subject of another assay is PC-3. The assay can be described thus: Growth inhibition assay, PA alone, PC-3. The settings on record: Homo sapiens, PC-3, 144 h, PA alone (no DFMO), six days; repeat determinations; read-out: Cell Line IC50 PC-3. How it is done: (§1) Medias were obtained from Mediatech, Inc. (Herdon, Va.) and serums from Gibco BRL (Gaithersburg, Md.). 50 U/ml penicillin, 50 μg/ml streptomycin and 2 mM L-glutamine (all from Bio Whittaker, Walkersville, Md.) were included in all cultures. […] When cells were cultured with polyamines or ORI compounds, 1 mM aminoguanidine (AG; Sigma) was included to inhibit serum amine oxidase activity.

The next assay relates to MDA-MB-231. The assay can be described thus: Growth inhibition assay, PA alone, MDA-MB-231. The following applies: PA alone (no DFMO), six days, repeat determinations, read-out: Cell Line IC50 MDA-MB-231. The method, then: as §1
The next assay relates to SK-OV-3. The assay can be described thus: Growth inhibition assay, PA alone, SK-OV-3. The settings on record: Homo sapiens, SK-OV-3, 144 h, PA alone (no DFMO), six days; repeat determinations; read-out: Cell Line IC50 SK-OV-3. How it is done:
as §1

Another assay concerns A375. The assay can be described thus: Growth inhibition assay, PA alone, A375. The following applies: Homo sapiens, A-375, 144 h, PA alone (no DFMO), six days; repeat determinations; read-out: Cell Line IC50 A375. How it is done:
as §1

The mark [2] stands for this setting: Table 3, average over cell lines, read-out: AVG. EC50.
Setting [3] is: Homo sapiens, MDA-MB-231, 144 h.
Setting [4] is: Table 1, average EC50 for 4 cell lines, read-out: Ave EC50 value.

For orientation: EC50 means the concentration that produces a half-maximal response. The IC50 is the concentration needed to halve the response being measured.

With `CC(C)CC(C)NCCCCC(N)C(=O)NCCCNCCCCNCCCN` (single isomer, unassigned) [VA21], in assay [1] (setting [2]), the EC50 came to 1.3 µM. For the same molecule, the IC50 with PC-3 is greater than 100 µM.
In the case of `CCCCCCCCCCCCCCCCCC(=O)NCCCC[C@@H](N)C(=O)NCCCNCCCCNCCCN` [IB2], the IC50 in the assay with MDA-MB-231 (setting [3]), in the assay with SK-OV-3, in the assay with A375 and with PC-3 was greater than 3 µM throughout. Also, the EC50 in assay [1] (setting [2]) turned out to be 0.083 µM.
Regarding `CCCCCCCC(=O)NCCCC[C@@H](N)C(=O)NCCCNCCCCNCCCN` [IB7], the IC50 in the assay on MDA-MB-231 (setting [3]), with SK-OV-3, in the assay with A375 and in the assay with PC-3 was greater than 30 µM each time. The EC50 in assay [1] (setting [2]) was 11.2 µM.
Take `CCCCCCC(=O)NCCCC[C@@H](N)C(=O)NCCCNCCCCNCCCN` [IB8]: the IC50 in the assay on MDA-MB-231 (setting [3]), in the assay on SK-OV-3, in the assay with A375 and in the assay with PC-3 was greater than 100 µM each time. For the same molecule, the EC50 in assay [1] (setting [2]) is 3.55 µM.
Consider `CCCCCC(=O)NCCCC[C@@H](N)C(=O)NCCCNCCCCNCCCN` [IB9], for which the IC50 with MDA-MB-231 (setting [3]), in the assay on SK-OV-3, in the assay with A375 and in the assay with PC-3 was greater than 100 µM throughout. The EC50 in assay [1] (setting [2]) turned out to be 11.5 µM.
Regarding `CCCC(=O)NCCC[C@@H](N)C(=O)NCCCNCCCCNCCCN` [IB10], the IC50 with MDA-MB-231 (setting [3]), with SK-OV-3, in the assay with A375 and with PC-3 was greater than 100 µM each time. The EC50 came to 12 µM in assay [1] (setting [4]) and 11.7 µM in assay [1] (setting [2]).
Consider `NCCCNCCCCNCCCNC(=O)[C@H](N)CCCCNC(=O)c1ccccc1` [IB24], for which the IC50 in the assay on MDA-MB-231 (setting [3]), in the assay on SK-OV-3, with A375 and in the assay on PC-3 was greater than 30 µM each time. For the same molecule, the EC50 in assay [1] (setting [2]) was greater than 30 µM.
On to `NCCCNCCCCNCCCNC(=O)[C@H](N)CCCCNC(=O)c1ccco1` [IB25], for which the IC50 with SK-OV-3, in the assay on A375 and in the assay on PC-3 was greater than 30 µM in each case.
As for `NCCCNCCCCNCCCNC(=O)[C@H](N)CCCCNC(=O)c1ccc(-c2ccccc2)cc1` [IB26], the IC50 in the assay on MDA-MB-231 (setting [3]), with SK-OV-3 and in the assay on PC-3 was greater than 100 µM each time. Besides, the EC50 in assay [1] (setting [2]) amounted to 0.955 µM.
Regarding `NCCCNCCCCNCCCNC(=O)[C@H](N)CCCCNC(=O)C(c1ccccc1)c1ccccc1` [IB29], the IC50 in the assay with MDA-MB-231 (setting [3]) was greater than 100 µM; in the assay on SK-OV-3, greater than 70 µM; in the assay on PC-3 it was greater than 100 µM.
For `NCCCNCCCCNCCCNC(=O)[C@H](N)CCCCNC(=O)C12CC3CC(CC(C3)C1)C2` [IB30], the IC50 is greater than 100 µM with MDA-MB-231 (setting [3]) and 84.4 µM in the assay with MDA-MB-231. Also, the EC50 in assay [1] (setting [2]) came out at 1.24 µM.
Regarding `NCCCNCCCCNCCCNC(=O)[C@H](N)CCCNC(=O)C1CCCCC1` [IB32], the IC50 in the assay on MDA-MB-231 (setting [3]), in the assay on SK-OV-3, in the assay with A375 and with PC-3 was greater than 100 µM throughout. For the same molecule, the EC50 in assay [1] (setting [4]) is 3.6 µM.
For `CC(C)C(=O)NCCCC[C@@H](N)C(=O)NCCCNCCCCNCCCN` [IB33], the IC50 in the assay with MDA-MB-231 (setting [3]), in the assay with SK-OV-3, in the assay with A375 and in the assay on PC-3 was greater than 100 µM each time. In assay [1] (setting [2]), the EC50 was found to be 8.58 µM.
Consider `CC(C)(C)C(=O)NCCCC[C@@H](N)C(=O)NCCCNCCCCNCCCN` [IB34], for which the IC50 in the assay with MDA-MB-231 (setting [3]), in the assay with SK-OV-3, in the assay with A375 and with PC-3 was greater than 100 µM each time. Also, the EC50 in assay [1] (setting [2]) came out at 8.29 µM.
Take `CC(C)(C)CC(=O)NCCCC[C@@H](N)C(=O)NCCCNCCCCNCCCN` [IB36]: the IC50 in the assay on MDA-MB-231 (setting [3]), in the assay on SK-OV-3, in the assay on A375 and with PC-3 was greater than 100 µM each time. Also, in assay [1] (setting [2]), the EC50 was determined as 26.9 µM.
`NCCCNCCCCNCCCNC(=O)[C@H](N)CCCCNC(=O)CC1CC2CCC1C2` (some centres unmarked) [IB37]: the IC50 in the assay with MDA-MB-231 (setting [3]) is greater than 100 µM; in the assay with SK-OV-3, 18.3 µM; in the assay on A375, 19.8 µM; in the assay on PC-3, greater than 100 µM. For the same molecule, in assay [1] (setting [2]), the EC50 came out at 35.1 µM.
